Reference: patent US6838580B2, “Opioid derivative” (Teikoku Seiyaku Co., Ltd., priority 2002, dated 2005)

What was measured:
δ-opioid receptor [1] = target: T1, δ-opioid receptor (Rattus norvegicus, UniProt P33533); assay: Competitive receptor binding assay, synaptic membrane fraction, [3H]DPDPE; conditions: rat brain synaptic membrane, read-out: Affinity of receptor (Ki, nM) δ
T1 construct: synaptic membrane fraction obtained from the rat brain tissue; from tissue; host or cells: Sprague-Dawley rat brain without cerebellum, synaptic membrane (P2) fraction
Description: (§1) Regarding the opioid peptide derivatives synthesized in Examples and Reference Examples, the μ- and δ-opioid receptor affinities were obtained by a competitive receptor assay using the synaptic membrane fraction obtained from the rat brain tissue according to the known methods. That is, Sprague-Dawley rats having an average weight of 150-180 g were killed by decapitation, the brain tissue from which cerebellum had been removed was homogenized in 0.32M sucrose and 1 mM HEPES (pH 7.5) containing 50 μg/ml soybean trypsin inhibitor, fractionated and centrifuged to obtain the synaptic membrane fraction (P2 fraction), which was pre-incubated in 50 mM HEPES (pH 7.5) containing 100 mM NaCl, 0.1 mM GDP and soybean trypsin inhibitor to remove endogenous ligands from the P2 fraction.
(§2) A competitive receptor binding assay (Radiolabeled receptor assay: RRA) based on an exchange reaction between a radioactive ligand for the synaptic membrane fraction and a peptide derivative to be tested was performed by using tritium-labeled [^3H]DAGO which is a μ-opioid receptor agonist and tritium-labeled [^3H]DPDPE which has the high δ-opioid receptor selectivity, and incubating an aliquot of the synaptic membrane with the peptide derivative to be tested for a period of time. Upon this, an exchange reaction between a ligand was performed under constant conditions, the radiation remaining in the synaptic membrane fraction was measured, and an amount of the ligand adsorbed onto the synaptic membrane fraction is calculated. By assuming that binding with a receptor occurs in competition between a radioactive ligand and an end ligand, the concentration (IC50) at which the maximum specific binding of the radioactive ligand is 50% inhibited was obtained, from which the affinity constant (Ki) was calculated by a method of Cheng et al. (Biochem. Pharmcol., 22, 3099(1973)).

μ-opioid receptor = target: T2, μ-opioid receptor (Rattus norvegicus, UniProt P33535); assay: Competitive receptor binding assay, synaptic membrane fraction, [3H]DAGO; conditions: for Ki: rat brain synaptic membrane, [3H]DAGO, read-out: Affinity of receptor (Ki, nM) μ; for Selectivity δ/μ: ratio Ki δ / Ki μ
T2 construct: synaptic membrane fraction obtained from the rat brain tissue; from tissue; host or cells: Sprague-Dawley rat brain without cerebellum, synaptic membrane (P2) fraction
Description: as §1, §2

δ-opioid receptor [2] = target: T3, δ-opioid receptor (Mus musculus, UniProt P32300); assay: Mouse seminiferous tract (MVD) assay, inhibition of electrically stimulated constriction; format: cell-based; conditions: agonist activity, read-out: MVD (IC50 ± S.E.)
T3 construct: using mouse seminiferous tract in place of guinea pig ileum; from tissue; host or cells: mouse seminiferous tract (vas deferens, MVD), organ bath

SD Male rats [3] = assay: Analgesic effect, Randoll-Seritto hind limb pressure method, intracerebroventricular administration; format: in vivo; conditions: rat, i.c.v., 3 μg/animal
Excerpt: (§3) SD Male rats, weighing 110 to 130 g, were used. One group consisted of five rats. The analgesic effects were examined by a Randoll-Seritto method. […] The threshold was expressed in mm Hg. During the measurement, the upper limit of the pressure applied to a hind limb was 100 mm Hg in order to avoid damage of the tissues.
1) When performing intracerebroventricular administration (i.c.v.), a rat was fixed to a brain stereotactic fixing apparatus under slight ether anesthesia, the skin at a head was dissected, and an administration cannula was inserted into a place at a transverse of […] from a bregma position and a depth of 3.5 to 4.0 mm. The administration volume was 10 μl/animal. Observation of the analgesic action was performed before administration, and at 30 minutes, and 1, 2, 3, 4 and 5 hours after administration. Doses of both compounds were 0.1, 1 and 10 μg/animal. Separately, a group to which 5 mg/kg of naltrexone hydrochloride was administered subcutaneously immediately after compound of Ex.1 10 μg/animal i.c.v and a group to which 5 mg/kg of naltrexone hydrochloride was administered subcutaneously immediately after compound of Ex.4 10 μg/animal i.c.v. was made. In addition, as morphine hydrochloride at a dose of 3 μg/animal i.c.v. group was used as a positive control group and a physiological saline 10 μl/animal i.c.v. group as a control group was made, respectively.
(§4) In order to perform a significant difference test between respective administration groups and control groups, and between values at respective times before administration and after administration, a Dunnet multiple comparative test method was used. In the statistical processing for performing a significant difference test between morphine hydrochloride administration groups and control groups, Student t-test was used. For performing a significant difference test between values at respective times before administration and after administration in morphine hydrochloride administration groups, a Dunnet multiple comparative test method was used. A significant level was at 5 or lower % risk rate (two-tailed test).

SD Male rats [4] = assay: Analgesic effect, Randoll-Seritto hind limb pressure method, intravenous administration; format: in vivo; conditions: rat, i.v., 5 mg/kg
Description: as §3
(§5) 2) When administered intravenously (i.v.), a volume of 2 ml/kg weight was administered to a tail vein and, when administered subcutaneously (s.c.), a volume of 2 ml/kg weight was subcutaneously administered to the back. In the case of intravenous administration, a 1 mg/kg, 3 mg/kg or 10 mg/kg compound of Ex.1 administration group, a 1 mg/kg, 3 mg/kg or 10 mg/kg compound of Ex.4 administration group, a 2 ml/kg physiological saline administration group and a 5 mg/kg morphine hydrochloride administration group were made, respectively. In the case of subcutaneous administration, a 10 mg/kg, 30 mg/kg or 100 mg/kg compound of Ex.1 administration group, a 10 mg/kg, 30 mg/kg or 100 mg/kg compound of Ex.4 administration group, a 2 ml/kg physiological saline administration group and a 5 mg/kg morphine hydrochloride administration group were made, respectively. Observation of the analgesic action was performed 15 minutes, 30 minutes, 1 hour and 2 hours after administration in the case of intravenous administration, 30 minutes, 1 hour, 2 hours and 3 hours after administration in the case of subcutaneous administration, respectively.
as §4

SD Male rats [5] = assay: Analgesic effect, Randoll-Seritto hind limb pressure method, subcutaneous administration; format: in vivo; conditions: rat, s.c., 5 mg/kg
Description: as §3, §5, §4

T3 sequence (P32300 whole entry): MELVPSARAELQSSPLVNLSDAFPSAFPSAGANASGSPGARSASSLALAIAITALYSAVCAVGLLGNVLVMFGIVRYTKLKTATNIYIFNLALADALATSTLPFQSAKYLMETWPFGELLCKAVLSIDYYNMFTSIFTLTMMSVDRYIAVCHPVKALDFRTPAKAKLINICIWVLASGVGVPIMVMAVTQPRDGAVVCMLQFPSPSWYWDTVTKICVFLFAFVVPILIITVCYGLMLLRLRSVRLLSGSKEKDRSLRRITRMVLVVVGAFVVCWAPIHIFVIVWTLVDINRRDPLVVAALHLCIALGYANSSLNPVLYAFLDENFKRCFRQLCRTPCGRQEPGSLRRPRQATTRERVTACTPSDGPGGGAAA
T1 sequence (P33533 whole entry): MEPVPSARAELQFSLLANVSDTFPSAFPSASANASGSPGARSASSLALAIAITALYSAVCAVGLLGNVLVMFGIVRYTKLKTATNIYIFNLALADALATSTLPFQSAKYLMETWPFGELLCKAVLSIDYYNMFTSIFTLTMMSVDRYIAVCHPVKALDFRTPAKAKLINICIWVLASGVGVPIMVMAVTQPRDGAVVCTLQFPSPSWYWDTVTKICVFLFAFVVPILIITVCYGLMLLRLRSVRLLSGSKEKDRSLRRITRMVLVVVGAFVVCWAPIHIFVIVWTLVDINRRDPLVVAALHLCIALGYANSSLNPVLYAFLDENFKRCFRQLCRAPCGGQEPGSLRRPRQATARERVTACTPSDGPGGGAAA
T2 sequence (P33535 whole entry): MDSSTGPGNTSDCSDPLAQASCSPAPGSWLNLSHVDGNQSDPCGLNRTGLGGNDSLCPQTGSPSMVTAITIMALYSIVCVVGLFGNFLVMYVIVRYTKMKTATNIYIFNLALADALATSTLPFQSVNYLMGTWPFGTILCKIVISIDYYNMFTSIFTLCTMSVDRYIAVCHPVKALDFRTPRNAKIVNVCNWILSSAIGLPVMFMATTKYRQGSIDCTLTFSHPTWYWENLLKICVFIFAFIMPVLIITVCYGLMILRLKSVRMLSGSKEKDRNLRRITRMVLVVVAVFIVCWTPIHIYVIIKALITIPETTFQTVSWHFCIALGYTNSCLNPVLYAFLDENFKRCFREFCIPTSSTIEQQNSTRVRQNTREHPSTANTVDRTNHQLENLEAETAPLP

Cc1cc(O)cc(C)c1C[C@H](N)C(=O)NCCCCNC(=O)[C@@H](N)Cc1ccccc1 [Ex.2, 1-Dmt-amino-4-Phe-aminobutane.2HCl]
Ki (δ-opioid receptor [1]): 61 ± 5.7 nM | Ki (μ-opioid receptor): 0.52 ± 0.089 nM | Selectivity δ/μ (μ-opioid receptor): 117 | IC50 (δ-opioid receptor [2]): > 10 µM

Cc1cc(O)cc(C)c1C[C@H](N)C(=O)NCCCCNC(=O)[C@@H](N)Cc1ccc(O)cc1 [Ex.3, 1-(Dmt-amino)-4-Tyr-aminobutane.2HCl]
Ki (δ-opioid receptor [1]): 133 ± 18 nM | Ki (μ-opioid receptor): 0.38 ± 0.02 nM | Selectivity δ/μ (μ-opioid receptor): 349 | IC50 (δ-opioid receptor [2]): > 10 µM

Cc1cc(O)cc(C)c1C[C@H](N)C(=O)NCCNC(=O)[C@@H](N)Cc1c(C)cc(O)cc1C [Ex.5, 1,2-Bis(Dmt-amino)ethane.2TFA]
Ki (δ-opioid receptor [1]): 116 ± 10.6 nM | Ki (μ-opioid receptor): 1.43 ± 0.01 nM | Selectivity δ/μ (μ-opioid receptor): 81 | IC50 (δ-opioid receptor [2]): > 10 µM

Cc1cc(O)cc(C)c1C[C@H](N)C(=O)NCCCCCCCCNC(=O)[C@@H](N)Cc1c(C)cc(O)cc1C [Ex.6, 1,8-Bis(Dmt-amino)octane.2TFA]
Ki (δ-opioid receptor [1]): 14.8 ± 3 nM | Ki (μ-opioid receptor): 0.19 ± 0.024 nM | Selectivity δ/μ (μ-opioid receptor): 78 | IC50 (δ-opioid receptor [2]): > 10 µM

CN1CC[C@]23c4c5ccc(O)c4O[C@H]2[C@@H](O)C=C[C@H]3[C@H]1C5.Cl [Morphine, morphine hydrochloride, reference compound]
Change in escape reaction threshold / analgesic effect, in words (SD Male rats [3]): significant increase in the threshold was recognized 30 minutes, 1 hour and 3 hours after administration | Threshold (mmHg) (SD Male rats [3]; 0.5 hr): 59 ± 4 mmHg | Threshold (mmHg) (SD Male rats [3]; 1 hr): 59 ± 3 mmHg | Threshold (mmHg) (SD Male rats [3]; 2 hr): 52 ± 3 mmHg | Threshold (mmHg) (SD Male rats [3]; 3 hr): 52 ± 3 mmHg | Threshold (mmHg) (SD Male rats [3]; 4 hr): 49 ± 2 mmHg | Threshold (mmHg) (SD Male rats [3]; 5 hr): 51 ± 2 mmHg | Threshold (mmHg) (SD Male rats [3]; before administration): 46 ± 1 mmHg | Change in escape reaction threshold / analgesic effect, in words (SD Male rats [4]): significant increase in the escape reaction threshold was recognized 15 minutes, 30 minutes and 1 hour after administration | Threshold (mmHg) (SD Male rats [4]; 0.25 hr): 83 ± 6^##,$$ mmHg | Threshold (mmHg) (SD Male rats [4]; 0.5 hr): 79 ± 7^##,$$ mmHg | Threshold (mmHg) (SD Male rats [4]; 1 hr): 78 ± 6^##,$$ mmHg | Threshold (mmHg) (SD Male rats [4]; 2 hr): 65 ± 7 mmHg | Threshold (mmHg) (SD Male rats [4]; before administration): 49 ± 2 mmHg | Change in escape reaction threshold / analgesic effect, in words (SD Male rats [5]): significant increase was recognized 30 minutes, 1 hour and 2 hours after administration | Threshold (mmHg) (SD Male rats [5]; 0.5 hr): 87 ± 2^##,$$ mmHg | Threshold (mmHg) (SD Male rats [5]; 1 hr): 85 ± 6^##,$$ mmHg | Threshold (mmHg) (SD Male rats [5]; 2 hr): 71 ± 7^#,$ mmHg | Threshold (mmHg) (SD Male rats [5]; 3 hr): 61 ± 7 mmHg | Threshold (mmHg) (SD Male rats [5]; before administration): 48 ± 2 mmHg

N[C@@H](Cc1ccccc1)C(=O)NCCCCNC(=O)[C@@H](N)Cc1ccccc1 [Ref.ex.1, 1,4-Bis(Phe-amino)butane.2HCl, reference compound]
Ki (δ-opioid receptor [1]): 46200 nM | Ki (μ-opioid receptor): 1530 nM | Selectivity δ/μ (μ-opioid receptor): 30

N[C@@H](Cc1ccc(O)cc1)C(=O)NCCCCNC(=O)[C@@H](N)Cc1ccc(O)cc1 [Ref.ex.2, 1,4-Bis(Tyr-amino)butane.2HCl, reference compound]
Ki (δ-opioid receptor [1]): 6500 nM | Ki (μ-opioid receptor): 309 ± 104 nM | Selectivity δ/μ (μ-opioid receptor): 21

N[C@@H](Cc1ccc(O)cc1)C(=O)NCCCCCCNC(=O)[C@@H](N)Cc1ccc(O)cc1.O=C(O)C(F)(F)F.O=C(O)C(F)(F)F [Ref.ex.3, 1,6-Bis(Tyr-amino)hexane.2TFA, reference compound]
Ki (δ-opioid receptor [1]): 21900 nM | Ki (μ-opioid receptor): 410 ± 85 nM | Selectivity δ/μ (μ-opioid receptor): 53

N[C@@H](Cc1ccc(O)cc1)C(=O)NCCNC(=O)[C@@H](N)Cc1ccc(O)cc1 [Ref.ex.4, 1,2-Bis(Tyr-amino)ethane.2TFA, reference compound]
Ki (δ-opioid receptor [1]): 8290 nM | Ki (μ-opioid receptor): 648 ± 95 nM | Selectivity δ/μ (μ-opioid receptor): 13

N[C@@H](Cc1ccc(O)cc1)C(=O)NCCCCCCCCNC(=O)[C@@H](N)Cc1ccc(O)cc1 [Ref.ex.5, 1,8-Bis(Tyr-amino)octane.2TFA, reference compound]
Ki (δ-opioid receptor [1]): 6150 nM | Ki (μ-opioid receptor): 399 ± 40.5 nM
